Measurements taken from patent US20090149452A1, “XANTHINE OXIDASE INHIBITOR” (NIPPON CHEMIPHAR CO., LTD., priority 2005, published 2009).

What was measured:
[1] = biological target: T1, Cow milk Xanthine Oxidase (Bos taurus, UniProt P80457); assay: In vitro xanthine oxidase inhibition (oxidation of xanthine, absorbance at OD 290 nm); format: biochemical; details: xanthine 250 μM, 50 mM phosphate buffer pH 7.5, 30° C. 10 minutes
T1 construct: Cow milk Xanthine Oxidase (Roche); purchased Roche; host or cells: cow milk
T1 sequence (P80457 whole entry): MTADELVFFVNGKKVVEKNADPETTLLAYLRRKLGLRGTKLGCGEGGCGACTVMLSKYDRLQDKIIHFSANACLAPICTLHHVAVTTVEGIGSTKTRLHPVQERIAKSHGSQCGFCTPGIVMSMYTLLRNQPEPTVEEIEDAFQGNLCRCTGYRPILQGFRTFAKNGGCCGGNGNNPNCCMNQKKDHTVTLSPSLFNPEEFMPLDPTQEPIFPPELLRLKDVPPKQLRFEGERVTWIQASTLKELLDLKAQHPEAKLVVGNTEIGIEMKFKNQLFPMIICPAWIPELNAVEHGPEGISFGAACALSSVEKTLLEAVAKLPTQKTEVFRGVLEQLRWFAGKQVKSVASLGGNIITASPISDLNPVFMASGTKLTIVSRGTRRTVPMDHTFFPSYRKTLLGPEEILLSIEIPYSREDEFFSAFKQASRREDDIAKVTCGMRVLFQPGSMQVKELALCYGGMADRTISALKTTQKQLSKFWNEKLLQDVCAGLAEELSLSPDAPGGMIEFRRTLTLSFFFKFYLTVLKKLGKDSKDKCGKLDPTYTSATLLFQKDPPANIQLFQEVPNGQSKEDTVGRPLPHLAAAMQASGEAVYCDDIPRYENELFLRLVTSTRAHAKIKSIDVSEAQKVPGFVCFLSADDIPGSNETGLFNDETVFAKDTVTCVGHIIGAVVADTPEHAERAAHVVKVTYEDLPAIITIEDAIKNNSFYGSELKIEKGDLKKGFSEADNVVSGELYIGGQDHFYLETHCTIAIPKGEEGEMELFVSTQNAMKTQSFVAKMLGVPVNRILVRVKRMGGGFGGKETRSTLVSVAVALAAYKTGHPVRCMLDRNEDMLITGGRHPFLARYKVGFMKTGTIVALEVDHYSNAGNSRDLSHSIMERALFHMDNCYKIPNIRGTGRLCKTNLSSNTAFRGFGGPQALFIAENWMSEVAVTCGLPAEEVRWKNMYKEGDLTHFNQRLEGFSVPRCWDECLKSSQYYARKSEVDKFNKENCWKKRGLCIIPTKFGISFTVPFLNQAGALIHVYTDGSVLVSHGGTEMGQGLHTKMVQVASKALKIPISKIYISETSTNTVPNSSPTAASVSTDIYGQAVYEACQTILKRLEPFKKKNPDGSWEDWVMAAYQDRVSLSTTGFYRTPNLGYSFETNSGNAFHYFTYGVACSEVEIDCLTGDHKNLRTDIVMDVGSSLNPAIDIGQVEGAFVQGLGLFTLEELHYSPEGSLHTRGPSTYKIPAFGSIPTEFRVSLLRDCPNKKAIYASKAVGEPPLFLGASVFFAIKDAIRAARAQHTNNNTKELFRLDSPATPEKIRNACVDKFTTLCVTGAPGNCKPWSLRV
Experimental: The xanthine oxidase inhibiting action (in vitro test) of the compound of the invention was confirmed by measuring inhibition of oxidation of xanthine by xanthine oxidase, as described in Example 26. As is clear from Tables 11 and 12, the compounds of the invention show excellent xanthine oxidase inhibiting action.
The test compound was dissolved in dimethylsulfoxide and diluted with 50 mM phosphate buffer (pH 7.5), to give a solution of a predetermined concentration.
125 μL of each of the solutions of the test compound having different concentrations was added to 1 mL of a solution of Xanthine (SIGMA, 250 μM) in the 50 mM phosphor buffer (pH 7.5). The mixture was then pre-incubated at 30° C. for 5 min. Subsequently, to the pre-incubated mixture was added 125 μL of Cow milk Xanthine Oxidase (Roche) diluted with the 50 mM phosphate buffer (pH 7.5) to 70 mU/mL, and the mixture was subjected to reaction at 30° C. for 10 minutes. Then, 1N hydrochloric acid (200 μL) was added to the reaction mixture to terminate the reaction. Subsequently, absorbance at OD 290 nm was measured by means of a spectrophotometer (Shimadzu UV-160A), to obtain a inhibition ratio. The measured inhibition ration was used to obtain IC50.
The inhibition ratio was calculated according to the following formula:
Inhibition ratio (%)=[1−(B−C)/(A−C)]×100 • A: absorbance of control • B: absorbance measured on a sample containing test compound • C: absorbance of blank

[2] = system: in-plasma uric acid value; assay: In vivo test: in-plasma uric acid value-inhibition ratio after single oral administration to mouse; details: in-plasma uric acid inhibition ratio as activity value relative to TMX-67 (0.3 mg/kg); unfasted ICR mouse, single oral 0.3 mg/kg or 3 mg/kg, blood one hour after administration
Experimental: The xanthine oxidase inhibiting action was further confirmed in viva tests by measuring the uric acid concentration in a plasma obtained from mouse into which the compound of the invention had been orally administered. See Example 27 and Tables 11 and 12. The test compound suspended in 1% methylcellulose solution in an amount of 0.3 mg/kg or 3 mg/kg was administered to unfasted ICR mouse (7 W) by forced single oral administration. The blood was collected from main artery from the mouse under etherization after one hour from the administration. The plasma was separated from the collected blood in the conventional manner. The plasma was then subjected to measurement of uric acid value by the enzyme method by means of an automatic analytical apparatus ([…]), to obtain an in-plasma uric acid value-inhibition ratio in the test sample-administered group as compared with a ratio obtained in the normal group. Based on the obtained in-plasma uric acid inhibition ratio, activity values (%) relative to activity values obtained in the simultaneously conducted tests using TMX-67 (0.3 mg/kg).

For `N#Cc1cc(-c2nc3cncnc3s2)ccc1Oc1ccccc1O` [Example 8, 2-[3-Cyano-4-(2-hydroxyphenoxy)phenyl]thiazolo[5,4-d]pyrimidine], the IC50 [1] was 103 nM, the “In Vivo (%) TMX-67 (0.3 mg/kg)” value [2] was 52% and the melting point was 255 to 256 °C.

With `N#Cc1cc(-c2nc3cncnc3s2)ccc1Oc1cccc(Cl)c1` [Example 15, 2-[4-(3-Chlorophenyloxy)-3-cyanophenyl]-thiazolo[5,4-d]pyrimidine] the “In Vivo (%) TMX-67 (0.3 mg/kg)” value [2] was 87% and the melting point was 171 to 173 °C.

With `N#Cc1cc(-c2nc3cncnc3s2)ccc1Sc1cccc(F)c1` [Example 19, 2-[3-Cyano-4-(3-fluorophenylthio)phenyl]-thiazolo[5,4-d]pyrimidine] the “In Vivo (%) TMX-67 (0.3 mg/kg)” value [2] was 171% and the melting point was 189 to 190 °C.

In the case of `N#Cc1cc(-c2nc3cncnc3s2)ccc1Oc1cccc(F)c1` [Example 6, 2-[3-Cyano-4-(3-fluorophenoxy)phenyl]-thiazolo[5,4-d]pyrimidine], the IC50 [1] is reported as 389 nM, the “In Vivo (%) TMX-67 (0.3 mg/kg)” value [2] is reported as 127% and the melting point is reported as 189 to 190 °C.

For `N#Cc1cc(-c2nc3cncnc3s2)ccc1Sc1ccc(F)cc1` [Example 7, 2-[3-Cyano-4-(4-fluorophenylthio)phenyl]-thiazolo[5,4-d]pyrimidine], the IC50 [1] was 239 nM, the “In Vivo (%) TMX-67 (0.3 mg/kg)” value [2] was 109% and the melting point was 190 to 195 °C.

With `N#Cc1cc(-c2nc3cncnc3o2)ccc1Oc1ccc(F)cc1` [Example 18, 2-[3-Cyano-4-(4-fluorophenoxy)phenyl]oxazolo[5,4-d]-pyrimidine] the “In Vivo (%) TMX-67 (0.3 mg/kg)” value [2] was 71%.

For `N#Cc1cc(-c2nc3cncnc3s2)ccc1Oc1ccccc1N` [Example 20, 2-[4-(2-Aminophenoxy)-3-cyanophenyl]thiazolo[5,4-d]-pyrimidine], the IC50 [1] was 58 nM and the melting point was 256 to 259 °C (dec.).

In the case of `N#Cc1cc(-c2nc3cncnc3s2)ccc1Oc1ccc(O)cc1.[K]` [Example 25, 2-[3-Cyano-4-(4-hydroxyphenoxy)phenyl]thiazolo[5,4-d]pyrimidine potassium salt], the “In Vivo (%) TMX-67 (0.3 mg/kg)” value [2] is reported as 35%.

With `N#Cc1cc(-c2nc3cncnc3s2)ccc1Oc1cccnc1` [Example 3, 2-[3-Cyano-4-(3-pyridyloxy)phenyl]thiazolo-[5,4-d]pyrimidine] the IC50 [1] was 273 nM, the “In Vivo (%) TMX-67 (0.3 mg/kg)” value [2] was 90% and the melting point was 210 to 212 °C.

With `N#Cc1cc(-c2nc3cncnc3s2)ccc1Oc1ccc(Cl)cc1` [Example 9, 2-[4-(4-Chlorophenyloxy)-3-cyanophenyl]-thiazolo[5,4-d]pyrimidine] the IC50 [1] was 298 nM, the “In Vivo (%) TMX-67 (0.3 mg/kg)” value [2] was 120% and the melting point was 179 to 180 °C.

With `N#Cc1cc(-c2nc3cncnc3s2)ccc1Sc1ccccc1` [Example 11, 2-(3-Cyano-4-phenylthiophenyl)thiazolo[5,4-d]pyrimidine] the IC50 [1] was 196 nM, the “In Vivo (%) TMX-67 (0.3 mg/kg)” value [2] was 110% and the melting point was 173 to 176 °C.

With `CN1CCN(c2ccc(-c3nc4cncnc4s3)cc2C#N)CC1` [Example 14, 2-[3-Cyano-4-(4-methyl-1-piperazinyl)phenyl]thiazolo[5,4-d]pyrimidine] the “In Vivo (%) TMX-67 (0.3 mg/kg)” value [2] was 43% and the melting point was 163 to 165 °C (dec.).

In the case of `N#Cc1cc(-c2nc3cncnc3[nH]2)ccc1Oc1ccc(F)cc1` [Example 4, 8-[3-Cyano-4-(4-fluorophenoxy)phenyl]-9H-purine], the IC50 [1] is reported as 33 nM, the “In Vivo (%) TMX-67 (0.3 mg/kg)” value [2] is reported as 33% and the melting point is reported as over 250 °C.

With `C=CCOc1ccc(-c2nc3cncnc3s2)cc1C#N` [Example 12, 2-(4-Allyloxy-3-cyanophenyl)thiazolo[5,4-d]-pyrimidine] the IC50 [1] was 310 nM, the “In Vivo (%) TMX-67 (0.3 mg/kg)” value [2] was 52% and the melting point was 202.6 to 207.6 °C.

For `N#Cc1cc(-c2nc3cncnc3s2)ccc1Sc1ccccc1F` [Example 10, 2-[3-Cyano-4-(2-fluorophenylthio)phenyl]-thiazolo[5,4-d]pyrimidine], the IC50 [1] was 127 nM, the “In Vivo (%) TMX-67 (0.3 mg/kg)” value [2] was 115% and the melting point was 178 to 180 °C.

In the case of `Cl.N#Cc1cc(-c2nc3cncnc3s2)ccc1Oc1cccnc1` [Example 21, 2-[3-Cyano-4-(3-pyridyloxy)phenyl]thiazolo-[5,4-d]pyrimidine hydrochloride], the “In Vivo (%) TMX-67 (0.3 mg/kg)” value [2] is reported as 68% and the melting point is reported as 204 to 206 °C.

In the case of `N#Cc1cc(-c2nc3cncnc3s2)ccc1Oc1ccc(F)cc1` [Example 1, 2-[4-(4-fluorophenoxy)-3-cyanophenyl]thiazolo[5,4-d]pyrimidine], the IC50 [1] is reported as 280 nM, the “In Vivo (%) TMX-67 (0.3 mg/kg)” value [2] is reported as 132% and the melting point is reported as 175 to 177 °C.

For `N#Cc1cc(-c2nc3cncnc3s2)ccc1N1CCOCC1` [Example 13, 2-(3-Cyano-4-morpholin-4-ylphenyl)thiazolo-[5,4-d]pyrimidine], the “In Vivo (%) TMX-67 (0.3 mg/kg)” value [2] was 40% and the melting point was 232 to 234 °C (dec.).

For `N#Cc1cc(-c2nc3cncnc3s2)ccc1Oc1ccccc1Cl` [Example 17, 2-[4-(2-Chlorophenyloxy)-3-cyanophenyl]thiazolo[5,4-d]pyrimidine], the “In Vivo (%) TMX-67 (0.3 mg/kg)” value [2] was 86% and the melting point was 209 to 211 °C.

For `N#Cc1cc(-c2nc3cncnc3s2)ccc1Oc1ccccc1` [Example 2, 2-[3-Cyano-4-phenoxyphenyl)thiazolo[5,4-d]-pyrimidine], the IC50 [1] was 139 nM, the “In Vivo (%) TMX-67 (0.3 mg/kg)” value [2] was 114% and the melting point was 154 to 156 °C.

For `N#Cc1cc(-c2nc3cncnc3s2)ccc1Oc1ccc(O)cc1` [Example 22, 2-[3-Cyano-4-(4-hydroxyphenoxy)phenyl]thiazolo[5,4-d]pyrimidine], the IC50 [1] was 72 nM and the melting point was over 250 °C.

For `N#Cc1cc(-c2nc3cncnc3s2)ccc1N1CCSCC1` [Example 16, 2-[3-Cyano-4-(thiomorpholin-4-yl)phenyl]-thiazolo[5,4-d]pyrimidine], the “In Vivo (%) TMX-67 (0.3 mg/kg)” value [2] was 34% and the melting point was 170 to 175 °C (dec.).

In the case of `N#Cc1cc(-c2nc3cncnc3s2)ccc1Oc1ccccc1F` [Example 5, 2-[3-Cyano-4-(2-fluorophenoxy)phenyl]-thiazolo[5,4-d]pyrimidine], the IC50 [1] is reported as 103 nM, the “In Vivo (%) TMX-67 (0.3 mg/kg)” value [2] is reported as 141% and the melting point is reported as 195 to 196 °C.
